# “And” between values parts separate entries of the source, which are not always exact repeats. Identical values can stand only once. The source made the active and inactive calls.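 Rule for the calls: active = mean EC50 dose giving half the maximal effect below 30 µM; inactive = mean EC50 of 30 µM or more.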
# Molecular target: Metabotropic glutamate receptor 4 (Homo sapiens) (UniProt Q14833)
# Assay: potentiation of human mGlu4 glutamate response – CHO Gqi5 cells, calcium mobilization, SAR follow-up (AID 623876)
# Conditions: CHO hmGlu4/Gqi5 calcium mobilization, PAM at EC20 glutamate
# Metabotropic glutamate receptor 4 (Homo sapiens), sequence (Q14833 whole entry, looked up): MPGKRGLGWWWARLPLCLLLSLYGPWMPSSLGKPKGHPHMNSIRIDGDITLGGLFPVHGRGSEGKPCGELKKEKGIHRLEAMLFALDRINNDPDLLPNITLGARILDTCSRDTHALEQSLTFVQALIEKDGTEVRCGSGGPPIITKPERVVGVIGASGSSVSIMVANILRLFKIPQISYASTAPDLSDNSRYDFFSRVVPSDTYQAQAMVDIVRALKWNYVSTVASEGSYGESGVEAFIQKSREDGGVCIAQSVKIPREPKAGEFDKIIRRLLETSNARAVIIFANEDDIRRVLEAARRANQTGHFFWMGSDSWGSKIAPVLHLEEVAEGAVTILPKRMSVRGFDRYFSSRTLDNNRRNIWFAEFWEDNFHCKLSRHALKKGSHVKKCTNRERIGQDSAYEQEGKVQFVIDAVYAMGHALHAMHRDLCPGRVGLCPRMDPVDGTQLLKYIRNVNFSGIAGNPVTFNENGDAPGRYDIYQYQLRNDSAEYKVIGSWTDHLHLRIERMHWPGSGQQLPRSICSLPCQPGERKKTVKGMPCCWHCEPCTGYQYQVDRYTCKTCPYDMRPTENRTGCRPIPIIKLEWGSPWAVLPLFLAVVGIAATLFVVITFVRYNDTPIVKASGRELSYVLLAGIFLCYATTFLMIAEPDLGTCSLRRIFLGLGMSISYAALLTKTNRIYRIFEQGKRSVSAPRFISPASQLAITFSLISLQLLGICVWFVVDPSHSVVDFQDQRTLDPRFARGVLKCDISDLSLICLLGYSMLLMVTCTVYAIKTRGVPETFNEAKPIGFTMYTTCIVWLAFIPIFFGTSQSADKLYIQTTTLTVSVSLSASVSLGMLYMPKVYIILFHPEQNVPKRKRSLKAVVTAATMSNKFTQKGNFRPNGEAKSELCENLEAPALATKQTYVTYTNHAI
row,Structure (SMILES),EC50
1,Clc1cccc(Nc2coc3cccnc23)c1,> 10 µM
2,O=C(Nc1cccc(Cl)c1)c1ccccn1,1.2 µM
3,O=c1[nH]c(-c2ccccn2)nc2cc(Cl)ccc12,> 10 µM
4,Clc1cccc(Nc2ccccn2)c1,> 10 µM
5,Clc1ccc2nc(-c3ccccn3)[nH]c2c1,4.68 µM
6,Clc1cccc(Nc2noc3cccnc23)c1,0.47 µM and 0.3 µM and 0.25 µM
7,COc1cc(NC(=O)c2ccccc2F)ccc1Cl,> 10 µM
8,O=C(Nc1nc(C(F)(F)F)cs1)c1ccccn1,> 10 µM
9,Clc1cccc(Nc2ncnc3cccnc23)c1,7.22 µM
10,Fc1cccc(Nc2noc3cccnc23)c1,1.19 µM
11,O=C(Nc1ccc2cc[nH]c2c1)c1ccccn1,> 10 µM
12,COc1cc2nc(-c3ccccn3)[nH]c2cc1Cl,> 10 µM
13,O=C(c1cscn1)N1CCOc2ccc(Cl)cc21,> 10 µM
14,Fc1ccc2nc(-c3ccccn3)[nH]c2c1,> 10 µM
15,O=C(Nc1ccc2c(c1)C(=O)NC2=O)c1ccccn1,3.82 µM
16,FC(F)Oc1cccc(Nc2noc3cccnc23)c1,0.36 µM and 0.44 µM
17,CC(C)N(C(=O)c1ccccn1)c1cccc(Cl)c1,> 10 µM
18,COc1cc(Nc2noc3cccnc23)ccc1Cl,3.26 µM
19,O=C(Nc1ccc2cn[nH]c2c1)c1ccccn1,1.37 µM
20,Clc1cccc(Nc2nc3ccccc3o2)c1,0.6 µM
21,COc1cc2nc(-c3ncc[nH]3)[nH]c2cc1Cl,> 10 µM

# Same assay, conditions: CHO hmGlu4/Gqi5 calcium mobilization, PAM at EC20 glutamate; stronger effect = higher value
row,Structure (SMILES),% glutamate max response
1,COc1cc(Nc2nccc3ccccc23)ccc1Cl,inactive
2,O=C(c1ccco1)N1CCOc2ccc(Cl)cc21,inactive
3,O=C(c1cncs1)N1CCOc2ccc(Cl)cc21,inactive
4,O=C(c1ccccn1)N(Cc1ccccn1)c1cccc(Cl)c1,inactive
5,COc1cc(NS(=O)(=O)c2ccccn2)ccc1Cl,inactive
6,COc1ccc(Nc2ncnc3cccnc23)cc1Cl,inactive
7,COc1cc(NC(C)=O)ccc1Cl,inactive
8,Clc1cccc(Nc2nccc3cccnc23)c1,inactive
9,CCN(C(=O)c1ccccn1)c1cccc(Cl)c1,inactive
10,Brc1cccc(-c2nc(-c3ccccn3)no2)c1,inactive
11,COc1cc(OC)cc(-c2nc(-c3ccccn3)no2)c1,inactive
12,Fc1ccc(Nc2ncnc3cccnc23)cc1F,inactive
13,Cc1nsc(NC(=O)c2ccccn2)n1,inactive
14,c1ccc(Nc2coc3cccnc23)cc1,inactive
15,COc1cccc(C(=O)N2CCOc3ccc(Cl)cc32)n1,inactive
16,Fc1ccc(Nc2ncnc3cccnc23)cc1Cl,inactive
17,COc1cc(NC(=O)c2ccccc2C)ccc1Cl,inactive
18,O=C1COc2cc(NC(=O)c3ccccn3)ccc2N1,inactive
19,O=C(c1ccccn1)N1CCOc2ccc(Cl)cc21,inactive
20,COc1cc(N2C(=O)c3ccccc3C2=O)ccc1Cl,inactive
21,Cc1cc(Nc2ncnc3cccnc23)ccc1Cl,inactive
22,COc1cc(Nc2cccc3cccnc23)ccc1Cl,inactive
23,COc1cc(N2Cc3ccccc3C2=O)ccc1Cl,inactive
24,Fc1cccc(Nc2ncnc3cccnc23)c1,inactive

row,Structure (SMILES),% glutamate max response
1,FC(F)(F)c1cccc(-c2nc(-c3ccccn3)no2)c1,inactive
2,O=C(NCCc1cccc(Cl)c1)c1ccccn1,inactive
3,O=C(c1cccc(Cl)n1)N1CCOc2ccc(Cl)cc21,inactive
4,Cn1cnc(NC(=O)c2ccccn2)n1,inactive
5,COc1cc(N2C(=O)c3cccnc3C2=O)ccc1Cl,inactive
6,COc1cc(Nc2nccc3cccnc23)ccc1Cl,inactive
7,Clc1cccc(Nc2nccc3ccccc23)c1,inactive
8,O=C(c1cccs1)N1CCOc2ccc(Cl)cc21,inactive
9,O=C(c1ccccn1)N1CCOc2c(Cl)cccc21,inactive
10,Cc1nc(NC(=O)c2ccccn2)nn1C,inactive
11,Cn1ccc(NC(=O)c2ccccn2)n1,inactive
12,Clc1cccc(-c2nc(-c3ccccn3)no2)c1,inactive
13,Clc1cccc(-c2n[nH]c(-c3ccccn3)n2)c1,inactive
14,Cn1ccnc1NC(=O)c1ccccn1,inactive
15,COc1cc(Nc2ncn3ccccc23)ccc1Cl,inactive
16,c1cnc2c(Nc3ccc4c(c3)OCO4)ncnc2c1,inactive
17,COc1cc(NC(=O)c2c(F)cccc2F)ccc1Cl,inactive
18,O=C(NCc1cccc(Cl)c1)c1ccccn1,inactive
19,Clc1cccc(Nc2cccc3cccnc23)c1,inactive
20,O=C1c2cccnc2C(=O)N1c1cccc(Cl)c1,inactive
21,COc1cc(Nc2nc3ccccc3o2)ccc1Cl,inactive
22,O=C(c1ccncn1)N1CCOc2ccc(Cl)cc21,inactive
23,COc1cc2nc(-c3cnccn3)[nH]c2cc1Cl,inactive
24,c1ccc(Nc2ncnc3cccnc23)cc1,inactive

# — PubChem BioAssay AID623876 (Vanderbilt Specialized Chemistry Center, 2012)
